Experimental data taken from patent US9504685B2, “Method for treating a pulmonary hypertension condition” (Gilead Sciences, Inc., priority 2006, dated 2016).

Test system: subjects with PAH
Test: Example 1 (ARIES-2) placebo-controlled Phase III trial, efficacy
Format: in vivo, human
Experimental: The primary objective of this study was to determine the effect of ambrisentan on exercise capacity in subjects with PAH. The secondary objectives of this study were to evaluate effects of ambrisentan on other clinical measures of PAH, as well as safety and tolerability of the study drug.
Study drug was provided in round, biconvex, oral tablets that were identical in appearance. Three strengths of active study drug, containing 1 mg, 2.5 mg or 5 mg of ambrisentan, were used in this study. All study drug was packaged in blister cards. Subjects were instructed to take study drug once daily (q.d.) by mouth (p.o.) in the morning, with or without food.
The maximum study duration was up to 14 weeks from the time of initial screening procedures to the final study visit (Week 12). Screening procedures were performed a maximum of 2 weeks prior to the first dose of study drug. The maximum duration of study drug treatment was 12 weeks.
Men and women, 18 years of age or older, with idiopathic PAH, PAH associated with connective tissue disease (CTD), e.g., mixed CTD, CREST syndrome, systemic sclerosis (scleroderma), overlap syndrome or systemic lupus erythematosus, or PAH associated with anorexigen use or HIV infection were enrolled in this study. Subjects were to have a documented mean PAP≧25 mmHg, PVR>3 mmHg/L/min, and PCWP or LVEDP<15 mmHg. Subjects must have been able to walk a distance of at least 150 m but no more than 450 m during 2 consecutive 6MWTs to be eligible for inclusion in the study.
After a 2 week screening period, eligible subjects were stratified based on the underlying etiology of PAH (idiopathic or non-idiopathic) and were randomized to 1 of 3 treatment groups (placebo, 2.5 mg or 5 mg ambrisentan) in a ratio of 1:1:1. One blinded dose reduction was permitted during the 12-week treatment period in the event of study drug intolerance (e.g., 5 mg to 2.5 mg, 2.5 mg to 1 mg, placebo to placebo). Subjects received a daily dose of 1 mg ambrisentan only if they reduced from the 2.5 mg dose group. Subjects were assessed for efficacy and safety at monthly intervals.
Therefore, after a minimum treatment period of 4 weeks, subjects who met 2 or more of the following predefined early escape criteria may have been removed from the study: • (a) a decrease from baseline of at least 20% in 6MWD; • (b) an increase of 1 or more WHO functional class; • (c) worsening right ventricular failure (e.g., as indicated by increased jugular venous pressure, new or worsening hepatomegaly, ascites or peripheral edema); • (d) rapidly progressing cardiogenic, hepatic or renal failure; and/or • (e) refractory systolic hypotension (systolic blood pressure <85 mmHg).
The primary efficacy endpoint was change from baseline in 6MWD evaluated after 12 weeks of treatment compared to placebo.
The secondary efficacy endpoints included: • (a) time to clinical worsening of PAH, as defined by the time from randomization to the first occurrence of death, lung transplantation, hospitalization for PAH, atrial septostomy, study discontinuation due to addition of other PAH therapeutic agents, or study discontinuation due to 2 or more early escape criteria; • (b) change from baseline measured after 12 weeks of treatment compared to placebo in: • (i) WHO functional class; • (ii) SF-36® health survey physical functioning scale; • (iii) BDI immediately following exercise; and/or • (iv) an assessment of the safety and tolerability of the study drug; and • (c) change from baseline measured after 12 weeks of treatment compared to placebo in plasma levels of ET-1, cTnT and BNP. Safety Assessments
For the ITT population, subjects were considered as belonging to their randomized treatment group, regardless of the actual treatment received.
The primary efficacy endpoint was the change from baseline in 6MWD evaluated after 12 weeks of treatment compared to placebo, where the last observation was carried forward. […]

[1] = 5 mg once daily, baseline to Week 12
[2] = combined 2.5 mg and 5 mg groups, 12 weeks
[3] = combined 2.5 mg and 5 mg groups, ITT population
[4] = combined 2.5 mg and 5 mg groups, baseline to Week 12

With `COC(c1ccccc1)(c1ccccc1)[C@H](Oc1nc(C)cc(C)n1)C(=O)O` [ambrisentan] the “Change in SF-36 Role-physical, mean (SD)” value [1] was “+7.61 (10.41)”, the “Change in SF-36 Social functioning, mean (SD)” value [1] was “+4.85 (11.89)” and the “Change in SF-36 Vitality, mean (SD)” value [1] was “+5.21 (8.79)”. The “Change in WHO functional class: +1 class” value [1] was 2 (3.2) subjects (% of ITT population), the “Change in WHO functional class: +2 classes” value [1] was 0 (0.0) subjects (% of ITT population) and the “Change in WHO functional class: no change” value [1] was 52 (82.5) subjects (% of ITT population). The “Change in WHO functional class: −1 class” value [1] was 8 (12.7) subjects (% of ITT population), the “Change in WHO functional class: −2 classes” value [1] was 1 (1.6) subjects (% of ITT population) and the “placebo-adjusted 6MWD change from baseline at Week 12” value (“placebo-adjusted 6MWD change” below) (South American subgroup, 2.5 mg once daily) was “+50.5 m”. For the same compound, the “placebo-adjusted 6MWD change” value (South American subgroup, 5 mg once daily) was “+79.5 m”, the “placebo-adjusted 6MWD change” value (WHO class I/II subgroup, 2.5 mg once daily) was “+44.1 m” and the “placebo-adjusted 6MWD change” value (WHO class I/II subgroup, 5 mg once daily) was “+67.7 m”. The “placebo-adjusted 6MWD change” value (WHO class III/IV subgroup, 2.5 mg once daily) was “+17.6 m”, the “placebo-adjusted 6MWD change” value (WHO class III/IV subgroup, 5 mg once daily) was “+51.8 m” and the “placebo-adjusted BDI at Week 12” value (combined 2.5 mg and 5 mg groups) was −1.1. The “Clinical worsening event: Atrial septostomy” value [2] was 0 (0.0) subjects (% of ITT population), the “Clinical worsening event: Death” value [2] was 2 (1.6) subjects (% of ITT population) and the “Clinical worsening event: Escape criteria” value [2] was 3 (2.4) subjects (% of ITT population). The “Clinical worsening event: Hospitalization for PAH” value [2] was 5 (3.9) subjects (% of ITT population), the “Clinical worsening event: Lung transplantation” value [2] was 0 (0.0) subjects (% of ITT population) and the “Clinical worsening event: Study withdrawal due to addition of PAH treatment” value [2] was 0 (0.0) subjects (% of ITT population). For the same compound, the “Clinical worsening: Total subjects with ≧1 event” value [2] was 6 (4.7) subjects (% of ITT population), the “Change in 6MWD from baseline to Week 12, mean” value [3] was “+35.7 meters” and the “Week 12 6MWD, mean” value [3] was 387.0 meters. For the same compound, the “subjects who deteriorated by at least 1 WHO class” value (combined 2.5 mg and 5 mg groups, Week 12) was 3.9%, the “Change in SF-36 Bodily pain, mean (SD)” value [4] was “+1.40 (10.96)” and the “Change in SF-36 General health, mean (SD)” value [4] was “+4.40 (7.40)”. For the same compound, the “Change in SF-36 Mental component summary, mean (SD)” value [4] was “+5.17 (11.00)”, the “Change in SF-36 Mental health, mean (SD)” value [4] was “+4.50 (9.88)” and the “Change in SF-36 Physical component summary, mean (SD)” value [4] was “+3.38 (7.69)”. For the same compound, the “Change in SF-36 Role-emotional, mean (SD)” value [4] was “+5.63 (13.86)”, the “Change in SF-36 Role-physical, mean (SD)” value [4] was “+6.74 (11.07)” and the “Change in SF-36 Social functioning, mean (SD)” value [4] was “+4.70 (10.81)”. The “Change in SF-36 Vitality, mean (SD)” value [4] was “+4.64 (8.94)”, the “Change in WHO functional class: +1 class” value [4] was 4 (3.1) subjects (% of ITT population) and the “Change in WHO functional class: +2 classes” value [4] was 1 (0.8) subjects (% of ITT population). The “Change in WHO functional class: no change” value [4] was 103 (81.1) subjects (% of ITT population), the “Change in WHO functional class: −1 class” value [4] was 18 (14.2) subjects (% of ITT population) and the “Change in WHO functional class: −2 classes” value [4] was 1 (0.8) subjects (% of ITT population). The “placebo-adjusted 6MWD change” value (eastern European subgroup, 2.5 mg once daily) was “+66.1 m”, the “placebo-adjusted 6MWD change” value (eastern European subgroup, 5 mg once daily) was “+88.0 m” and the “placebo-adjusted 6MWD change” value (female subjects, 2.5 mg once daily) was “+42.5 m”. For the same compound, the “placebo-adjusted 6MWD change” value (female subjects, 5 mg once daily) was “+75.7 m”, the “placebo-adjusted 6MWD change” value (idiopathic PAH subgroup, 2.5 mg once daily) was “+56.3 m” and the “placebo-adjusted 6MWD change” value (idiopathic PAH subgroup, 5 mg once daily) was “+75.7 m”. For the same compound, the “placebo-adjusted 6MWD change” value (male subjects, 2.5 mg once daily) was “+6.8 m”, the “placebo-adjusted 6MWD change” value (male subjects, 5 mg once daily) was “+2.7 m” and the “placebo-adjusted 6MWD change” value (non-idiopathic PAH subgroup, 2.5 mg once daily) was −12.6 m. For the same compound, the “placebo-adjusted 6MWD change” value (non-idiopathic PAH subgroup, 5 mg once daily) was “+29.5 m”, the “reduction in the probability of clinical worsening (hazard ratio) compared to placebo” value (subjects receiving ambrisentan (combined group), 12 weeks) was 80% and the “subjects hospitalized for PAH” value (subjects receiving ambrisentan (combined), 12 weeks) was 3.9%. For the same compound, the “placebo-adjusted 6MWD change” value (western European/Israel subgroup, 2.5 mg once daily) was “+3.0 m” and the “placebo-adjusted 6MWD change” value (western European/Israel subgroup, 5 mg once daily) was “+39.4 m”.
